The text below walks through data of the METLIN SMRT retention time set (Domingo-Almenara et al. 2019).

The data set is described as follows: gradient 5% acetonitrile 3 min, to 50% in 2 min, to 85% in 15 min, held 3 min, 100 µL/min. The conditions noted are these: column: Zorbax Extend-C18 2.1 x 50 mm; eluents: water / acetonitrile, 0.1% formic acid. The method, boiled down: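 Values are retention times taken from adduct peaks that software picked and an analyst inspected. The pure standards were run as mixtures of ~100 molecules on HPLC linked to a quadrupole time-of-flight mass spectrometer, in positive and negative ionization mode. A Zorbax Extend-C18 column (2.1 × 50 mm, 1.8 μm) was used at 100 μL/min with water and acetonitrile, each including 0.1% formic acid.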
Take `Cc1ccc(NC(=O)N2CCC(n3cnc4cc(Cl)ccc4c3=O)CC2)cc1C`: the RP-LC retention time amounted to 911 s.

With `CCc1cc(C(=O)NCc2ccc(C)o2)nc2cc(-c3ccccn3)nn12`, the RP-LC retention time was determined as 778 s.

Compound `CCN1CCN(C(=O)C2CCN(c3nc4ccc(-c5cccs5)nc4s3)CC2)CC1` gave an RP-LC retention time of 586 s.

On to `O=C(NCc1cccc(F)c1)c1cc(N2CCCC2)n2nccc2n1`, for which the RP-LC retention time was determined as 946 s.

Compound `Cc1cccc(-c2ncccc2CNS(=O)(=O)c2ccc(F)cc2)c1` displayed an RP-LC retention time of 724 s.

On to `CCS(=O)(=O)N1CC(=O)N(c2cccc(Cl)c2C)C(C)(C(=O)NCc2ccc(F)cc2)C1` (stereo not given), for which the RP-LC retention time stood at 913 s.

Regarding `O=C(C1CCCO1)N1CCC(c2cnn(-c3cccc(F)c3)c2)CC1` (stereo not given), the RP-LC retention time was found to be 792 s.

As for `O=C(c1ccoc1)N1CCCC(c2nnc3n2CCN(C2CCCC2)C3)C1` (stereo not given), the RP-LC retention time stood at 562 s.

Consider `CCc1nc(-c2csc(S(=O)(=O)N3CCC(C(=O)NCc4cccnc4)CC3)c2)no1`, for which the RP-LC retention time turned out to be 645 s.

`CCN(CC)S(=O)(=O)c1ccc2c(c1)cc(C(=O)NCCc1c[nH]c3ccccc13)n2C` gave an RP-LC retention time of 1010 s.

On to `CCOc1ccc(S(=O)(=O)N2CCc3c(c(-c4nnc(-c5ccccc5)o4)nn3C)C2)cc1`, for which the RP-LC retention time was 996 s.

Turning to `O=C(NCCc1ccc(Cl)cc1)C(=O)Nc1ccc(F)cc1F`, the RP-LC retention time is 971 s.

As for `CC(C)NC(=O)N1CCC(c2noc(-c3ccccc3)n2)C1` (stereo not given), the RP-LC retention time was found to be 775 s.

In turn, `CCOc1ccc(S(=O)(=O)N2CCCC(C(=O)N3CCN(c4ccccc4)CC3)C2)cc1` (stereo not given) came in with an RP-LC retention time of 1020 s.

`CCCN(CC1CCOC1)C(=O)Nc1cc(Cl)ccc1C` (stereo not given) registered an RP-LC retention time of 901 s.

`Cc1c(C)n(C)c2ccc(C(N)=O)cc12` came in with an RP-LC retention time of 704 s.

`CC(C(=O)Nc1ccccc1C(F)(F)F)N1C(=O)c2ccccc2S1(=O)=O` (stereo not given): the RP-LC retention time came out at 828 s.

The compound `O=C(Cn1c(=O)ccc2cc(S(=O)(=O)N3CCCC3)ccc21)N1CCN(c2ccccn2)CC1` yielded an RP-LC retention time of 596 s.

In turn, `CCn1nccc1C(=O)NC1CCN(c2ncnc3c2CCC3)C1` (stereo not given) came in with an RP-LC retention time of 585 s.

`O=C1CO[C@@H](C(=O)O)[C@H](c2ccccc2)N1` had an RP-LC retention time of 576 s.

The compound `CCCNc1cc(N2CCC(CCC(=O)NCc3ccc(C)cc3)CC2)ncn1` gave an RP-LC retention time of 716 s.

`Cn1c(=O)n(C)c2cc(S(=O)(=O)N3CCN(c4ccccn4)CC3)c(Cl)cc21` displayed an RP-LC retention time of 602 s.

Compound `CCOc1ccccc1-c1noc(CN2C(=O)COc3ccccc32)n1` yielded an RP-LC retention time of 963 s.

Take `CN(CC1CCOC1)C(=O)Nc1cccc(F)c1` (stereo not given): the RP-LC retention time was 660 s.

As for `C=C(C)CN1CC[C@]23c4c5ccc(O)c4O[C@H]2c2[nH]c4ccccc4c2C[C@@]3(O)C1C5`, the RP-LC retention time came out at 703 s.

With `NC(=O)COc1cc(-c2ccccc2)nc2ccc(NC(=O)C3CC3)cc12`, the RP-LC retention time amounted to 610 s.

Turning to `CN1C(=O)c2cc(C(=O)NCc3ccc(F)cc3)nn2CC1(C)C(=O)NC1CCCCC1` (stereo not given), the RP-LC retention time was 791 s.

With `O=C(NCCCN1CCCC1=O)c1ccc(-c2ccc(N3CCSCC3)nc2)cc1`, the RP-LC retention time was determined as 619 s.

Compound `Cc1cc(NC(=O)CSc2nnc3sc4ccccc4n23)no1` yielded an RP-LC retention time of 668 s.

In turn, `CC(=O)N1CCC(C(=O)NCc2ccc(-c3nc(-c4cccs4)no3)s2)CC1` displayed an RP-LC retention time of 731 s.

Take `O=c1ccc(-c2ccc(F)cc2)nn1Cc1nc(-c2ccc(F)cc2)no1`: the RP-LC retention time is 952 s.

`O=C(Nc1ccc2c(c1)OCCO2)C1CCN(S(=O)(=O)c2ccc3[nH]c(=O)ccc3c2)CC1` came in with an RP-LC retention time of 691 s.

With `CCC1(O)CCOC2(CCN(C(=O)C3CC=CC3)CC2)C1` (stereo not given), the RP-LC retention time was 686 s.

In turn, `Cc1ccc(C)c(NC(=O)CN2C(=O)NC3(CCC(C)CC3)C2=O)c1` (stereo not given) registered an RP-LC retention time of 777 s.

Take `COc1ccc(N2CCN(c3cc(SCC(=O)NCc4ccc(SC)cc4)ncn3)CC2)cc1`: the RP-LC retention time was 897 s.

`CCOC(=O)CNC(=O)C1CC(=O)N(CCc2c[nH]c3ccc(F)cc23)C1` (stereo not given) came in with an RP-LC retention time of 962 s.

Turning to `O=c1c2cnn(-c3ccc(Br)cc3)c2ncn1Cc1nc(-c2ccccc2)no1`, the RP-LC retention time came out at 1150 s.

In turn, `COCCCNC(=O)c1ccc(-n2nc(C)c3c2CC(C)(C)CC3=O)cc1` showed an RP-LC retention time of 711 s.

For `Cc1cc(C)c2c(N3CCSCC3)nc(C(=O)NCCN3CCCC3)nc2n1`, the RP-LC retention time worked out at 600 s.

With `CCN(C(=O)Cc1ccccc1)c1nc(-c2ccccc2)cs1`, the RP-LC retention time was found to be 1270 s.

Consider `CCOc1ccc(-c2csc(NC(=O)CCCc3nc(-c4ccccc4Cl)no3)n2)cc1`, for which the RP-LC retention time was determined as 1160 s.

`Cc1cccc(OCc2nc(C)c(C(=O)Nc3nc(-c4ccc(C)c(C)c4)cs3)s2)c1` showed an RP-LC retention time of 1410 s.

`O=C(Cc1ccc(Cl)cc1)Nc1cnc(N2CCCCC2)nc1` had an RP-LC retention time of 962 s.

For `CCOC(=O)N1CCN(CC(O)COc2c(F)cc(Br)cc2F)CC1` (stereo not given), the RP-LC retention time came to 591 s.

The compound `CCOc1ccc(S(=O)(=O)N2CCC(c3noc(-c4ccccc4C)n3)CC2)cc1` displayed an RP-LC retention time of 1180 s.

Take `Cc1cccc(N2CCN(CCNC(=O)c3cc4sccc4n3C)CC2)c1C`: the RP-LC retention time amounted to 778 s.

In the case of `CC(=O)N1CCc2cc(-c3ccc(C(=O)N4CCN(c5ccccn5)CC4)cc3)ccc21`, the RP-LC retention time was found to be 611 s.

Compound `COc1ccccc1-c1c(C)nn2c(N3CCN(c4ccccn4)CC3)cc(C)nc12` yielded an RP-LC retention time of 604 s.

Consider `CCCN(C)c1nccn2c(=O)n(CC(=O)Nc3ccc(F)cc3)nc12`, for which the RP-LC retention time came out at 806 s.

With `Cc1ccc(CNC(=O)N2CCN(Cc3c(C)noc3C)CC2)cc1`, the RP-LC retention time is 611 s.

Take `Cc1ccc(NC(=O)N2CCC(C(C)C(=O)Nc3cccc(Cl)c3)CC2)cc1` (stereo not given): the RP-LC retention time worked out at 971 s.

The compound `COc1ccc(SCCCC(=O)Nc2cccc(C)c2C)cc1` yielded an RP-LC retention time of 906 s.

Compound `Cc1ccc(-n2nc(OC(C)C(=O)NCc3ccco3)ccc2=O)cc1C` (stereo not given) had an RP-LC retention time of 748 s.

For the compound `CCS(=O)(=O)N1CC(F)(F)C[C@H]1c1nnc(-c2ccccc2)o1`, the RP-LC retention time is 824 s.

In turn, `CCOC(=O)CNC(=O)N1CCc2c(c(C(=O)N3CCCC3)nn2C)C1` registered an RP-LC retention time of 637 s.

`O=C(CN1C(=O)C2CCCCN2c2ccc(S(=O)(=O)N3CCCC3)cc21)N1CCOCC1` (stereo not given) returned an RP-LC retention time of 750 s.

As to `CCC(CC)C(=O)N1CCN(c2ccc(=O)n(-c3ccc(Cl)cc3)n2)CC1`, the RP-LC retention time is 887 s.

`CC(C)Cn1cc(S(=O)(=O)N2CCN(c3cccc(Cl)c3)CC2)c2cccnc21` showed an RP-LC retention time of 1250 s.

The compound `COc1ccc(-c2cn3c(CC(=O)Nc4cc(F)ccc4F)csc3n2)cc1OC` returned an RP-LC retention time of 744 s.

As for `COc1ccc(NC(=O)Cc2csc3nc(-c4cccc(Cl)c4)cn23)cc1`, the RP-LC retention time stood at 889 s.

As for `O=C(Nc1ncnc2c1CCC2)c1ccc(S(=O)(=O)N2CCCc3ccccc32)cc1`, the RP-LC retention time was 817 s.

`CSc1ccccc1NC(=O)c1nnn(-c2cc(Cl)ccc2C)c1C` came in with an RP-LC retention time of 1180 s.

Consider `c1ccc(-c2nc(CSc3ccc(-n4cccn4)nn3)cs2)cc1`, for which the RP-LC retention time amounted to 1020 s.

In turn, `Cc1ccc(-c2noc(-c3ccc(N4CCN(Cc5ccc6c(c5)OCO6)CC4)nc3)n2)cc1` came in with an RP-LC retention time of 874 s.

On to `O=C(CN1C(=O)C(C(=O)N2CCCCCC2)Sc2ccccc21)N1CCN(c2ccccc2)CC1` (stereo not given), for which the RP-LC retention time was 663 s.

Compound `COc1ccc(NC(=O)N2CCOc3ccc(Cl)cc32)cc1OC` displayed an RP-LC retention time of 870 s.

The compound `Cc1ccc(-c2ncccc2CNS(=O)(=O)c2cccc(F)c2)cc1` had an RP-LC retention time of 713 s.

In the case of `Cc1ccc(C)c(NC(=O)c2cn3c(n2)CCCC3)c1`, the RP-LC retention time came to 603 s.

With `Cc1ccc(C)c(-c2coc(-c3ccc(NC(=O)c4ccc(Br)o4)cc3)n2)c1`, the RP-LC retention time was found to be 1310 s.

Consider `O=C(NCCCN1CCc2ccccc2C1)C1CCCN(S(=O)(=O)N2CCCCCC2)C1` (stereo not given), for which the RP-LC retention time is 682 s.

In the case of `O=C(Nc1ccc(Br)cc1)Nc1ccccc1Cl`, the RP-LC retention time was 1140 s.

On to `CCN1C(=O)Cc2ccccc2C1C(=O)NCc1cccs1` (stereo not given), for which the RP-LC retention time is 716 s.

Regarding `CCCNc1cc(-n2nc(C)cc2C)ncn1`, the RP-LC retention time stood at 771 s.

`CCCN1C(=O)NC2(CCN(C(=O)Nc3ccccc3C(F)(F)F)CC2)C1=O`: the RP-LC retention time was 705 s.

In turn, `CCn1c(=O)c2ccn(CC(=O)Nc3cc(C)cc(C)c3)c2n(CC)c1=O` came in with an RP-LC retention time of 792 s.

`COc1ccc(C(=O)NCc2ccc(OCCN(C)C)cc2)cc1OC` registered an RP-LC retention time of 638 s.

`O=C(NCC1CCCO1)c1nc(-c2ccnc(N3CCCC3)c2)no1` (stereo not given) displayed an RP-LC retention time of 597 s.

As to `CCc1nn2c(=O)cc(CSc3nnc(-c4ccc5c(c4)OCO5)o3)nc2s1`, the RP-LC retention time turned out to be 743 s.

Take `COc1ccc(-c2nc(NC(C)C)c3ccccc3n2)cc1`: the RP-LC retention time turned out to be 743 s.

Compound `Cc1cccc(NC(=O)Nc2ccc3nncn3c2)c1` had an RP-LC retention time of 690 s.
